These are literature values, as cited in paper PMC12394912 (RSC Chemical Biology, 2025).

SMILES strings stand for the structures.

Regarding `Cc1ncsc1-c1ccc(CNC(=O)[C@@H]2C[C@@H](O)CN2C(=O)[C@@H](NC(=O)COCCOCCOCCNC(=O)C[C@@H]2N=C(c3ccc(Cl)cc3)c3c(sc(C)c3C)-n3c(C)nnc32)C(C)(C)C)cc1` [MZ1], the “PAMPA permeability, fold lower than E3 ligand VH032” value is ~290 fold and the “PAMPA permeability, fold lower than POI ligand JQ1” value is “approximately 190 fold”.
